Test results as given in ChEMBL document CHEMBL4266063, “Synthesis of Artemisinin-Estrogen Hybrids Highly Active against HCMV, P. falciparum, and Cervical and Breast Cancer” (ACS Med Chem Lett, 2018).

Tests used:
Human betaherpesvirus 5 = experiment: Antiviral activity against GFP-fused Human cytomegalovirus AD169 infected in HFF measured 7 days post infection; format: functional, organism-based; conditions: Human betaherpesvirus 5, AD169, HFF, 168 h
Plasmodium falciparum [1] = experiment: Antimalarial activity against synchronized ring stage of Plasmodium falciparum 3D7 infected in human erythrocytes after 72 hrs by SYBR Green1 dye based fluorescence assay; format: functional, organism-based; conditions: 3D7, 72 h
HFF = experiment: Cytotoxicity against HFF measured over 7 days by microscopic analysis; format: cell-based; conditions: human, 168 h
Plasmodium falciparum [2] = experiment: Potency index, ratio of chloroquine EC50 to test compound EC50 for synchronized ring stage of Plasmodium falciparum 3D7 infected in human erythrocytes; format: functional
MCF7 = experiment: Antiproliferative activity against human MCF7 cells after 72 hrs by MTT assay; format: functional, cell-based; conditions: MCF7, 72 h
MDA-MB-231 = experiment: Antiproliferative activity against human MDA-MB-231 cells after 72 hrs by MTT assay; format: functional, cell-based; conditions: MDA-MB-231, 72 h
MDA-MB-361 = experiment: Antiproliferative activity against human MDA-MB-361 cells after 72 hrs by MTT assay; format: functional, cell-based; conditions: MDA-MB-361, 72 h
T47D = experiment: Antiproliferative activity against human T47D cells after 72 hrs by MTT assay; format: functional, cell-based
HeLa = experiment: Antiproliferative activity against human HeLa cells after 72 hrs by MTT assay; format: functional, cell-based
SiHa = experiment: Antiproliferative activity against human SiHa cells after 72 hrs by MTT assay; format: functional, cell-based
C-33-A = experiment: Antiproliferative activity against human C33A cells after 72 hrs by MTT assay; format: functional, cell-based

COc1ccc2c(c1)CC[C@@H]1[C@@H]2CC[C@]2(C)[C@@H](O)[C@H](NC(=O)CCC(=O)O[C@@H]3O[C@@H]4O[C@@]5(C)CC[C@H]6[C@H](C)CC[C@@H]([C@H]3C)[C@@]46OO5)C[C@@H]12
EC50 (Human betaherpesvirus 5): 2440 nM | EC50 (Plasmodium falciparum [1]): 3.8 nM | Activity (HFF): Non-Toxic | Ratio EC50 (Plasmodium falciparum [2]): 2 | EC50 (MCF7): 4690 nM | EC50 (MDA-MB-231): 6890 nM | EC50 (MDA-MB-361): 640 nM | EC50 (T47D): 740 nM | EC50 (HeLa): 11400 nM | EC50 (SiHa): 26000 nM | EC50 (C-33-A): 870 nM

COc1ccc2c(c1)CC[C@@H]1[C@@H]2CC[C@]2(C)[C@@H](O)[C@H](N)C[C@@H]12
EC50 (MCF7): 11900 nM | EC50 (MDA-MB-231): 16000 nM | EC50 (MDA-MB-361): 4580 nM | EC50 (T47D): 5560 nM | EC50 (HeLa): 13300 nM | EC50 (SiHa): 17400 nM | EC50 (C-33-A): 13200 nM

COc1ccc2c(c1)CC[C@@H]1[C@@H]2CC[C@]2(C)C(=O)[C@H](n3cc(CO[C@H]4O[C@@H]5O[C@@]6(C)CC[C@H]7[C@H](C)CC[C@@H]([C@H]4C)[C@@]57OO6)nn3)C[C@@H]12
EC50 (Human betaherpesvirus 5): 240 nM | EC50 (Plasmodium falciparum [1]): 13.1 nM | Activity (HFF): Non-Toxic | EC50 (MCF7): 1770 nM | EC50 (MDA-MB-231): 1780 nM | EC50 (MDA-MB-361): 170 nM | EC50 (T47D): 160 nM | EC50 (HeLa): 15400 nM | EC50 (SiHa): 28900 nM | EC50 (C-33-A): 2050 nM

C[C@H]1[C@@H](CC(=O)OC[C@H]2C[C@H]3[C@@H]4CCc5cc(OCc6ccccc6)ccc5[C@H]4CC[C@]3(C)[C@H]2O)O[C@@H]2O[C@@]3(C)CC[C@H]4[C@H](C)CC[C@@H]1[C@@]24OO3
EC50 (Human betaherpesvirus 5): 220 nM | EC50 (Plasmodium falciparum [1]): 129 nM | Activity (HFF): Non-Toxic | EC50 (MCF7): 450 nM | EC50 (MDA-MB-231): 860 nM | EC50 (MDA-MB-361): 180 nM | EC50 (T47D): 930 nM | EC50 (HeLa): 14200 nM | EC50 (SiHa): 16100 nM | EC50 (C-33-A): 150 nM

C[C@]12CC[C@@H]3c4ccc(OCc5ccccc5)cc4CC[C@H]3[C@@H]1C[C@H](CO)[C@@H]2O
EC50 (Plasmodium falciparum [1]): 17200 nM | EC50 (MCF7): 12900 nM | EC50 (MDA-MB-231): 12800 nM | EC50 (MDA-MB-361): 2770 nM | EC50 (T47D): 8320 nM | EC50 (HeLa): 12800 nM | EC50 (SiHa): 7750 nM | EC50 (C-33-A): 12200 nM

COc1ccc2c(c1)CC[C@@H]1[C@@H]2CC[C@]2(C)[C@@H](O)[C@H](NC(=O)O[C@H]3O[C@@H]4O[C@@]5(C)CC[C@H]6[C@H](C)CC[C@@H]([C@H]3C)[C@@]46OO5)C[C@@H]12
EC50 (Human betaherpesvirus 5): 230 nM | EC50 (Plasmodium falciparum [1]): 7.7 nM | Activity (HFF): Non-Toxic | EC50 (MCF7): 1020 nM | EC50 (MDA-MB-231): 1850 nM | EC50 (MDA-MB-361): 690 nM | EC50 (T47D): 1170 nM | EC50 (HeLa): 1650 nM | EC50 (SiHa): 6210 nM | EC50 (C-33-A): 570 nM

C[C@H]1[C@H](OC(=O)CCC(=O)OC[C@H]2C[C@H]3[C@@H]4CCc5cc(OCc6ccccc6)ccc5[C@H]4CC[C@]3(C)[C@H]2O)O[C@@H]2O[C@@]3(C)CC[C@H]4[C@H](C)CC[C@@H]1[C@@]24OO3
EC50 (Human betaherpesvirus 5): 380 nM | EC50 (Plasmodium falciparum [1]): 34.2 nM | Activity (HFF): Non-Toxic | EC50 (MCF7): 760 nM | EC50 (MDA-MB-231): 2300 nM | EC50 (MDA-MB-361): 200 nM | EC50 (T47D): 220 nM | EC50 (HeLa): > 30000 nM | EC50 (SiHa): 28400 nM | EC50 (C-33-A): 1730 nM

COc1ccc2c(c1)CC[C@@H]1[C@@H]2CC[C@]2(C)C(=O)[C@H](N=[N+]=[N-])C[C@@H]12
EC50 (Plasmodium falciparum [1]): > 50000 nM | EC50 (MCF7): > 30000 nM | EC50 (MDA-MB-231): > 30000 nM | EC50 (MDA-MB-361): > 30000 nM | EC50 (T47D): > 30000 nM | EC50 (HeLa): > 30000 nM | EC50 (SiHa): > 30000 nM | EC50 (C-33-A): > 30000 nM

C[C@@H]1CC[C@H]2[C@@H](C)C(=O)O[C@@H]3O[C@@]4(C)CC[C@@H]1[C@]32OO4 [ARTEMISININ]
EC50 (Human betaherpesvirus 5): > 10000 nM

C[C@H]1[C@@H](O)O[C@@H]2O[C@@]3(C)CC[C@H]4[C@H](C)CC[C@@H]1[C@@]24OO3 [ARTENIMOL]
EC50 (Human betaherpesvirus 5): > 10000 nM | EC50 (MCF7): 8240 nM | EC50 (MDA-MB-231): 10700 nM | EC50 (MDA-MB-361): 1710 nM | EC50 (T47D): 4600 nM | EC50 (HeLa): 10500 nM | EC50 (SiHa): 29800 nM | EC50 (C-33-A): 1710 nM

C[C@H]1[C@H](OC(=O)CCC(=O)O)O[C@@H]2O[C@@]3(C)CC[C@H]4[C@H](C)CC[C@@H]1[C@@]24OO3 [ARTESUNATE]
EC50 (Plasmodium falciparum [1]): 8.9 nM | EC50 (MCF7): 4210 nM | EC50 (MDA-MB-231): 10000 nM | EC50 (MDA-MB-361): 2270 nM | EC50 (T47D): 2220 nM | EC50 (HeLa): 12000 nM | EC50 (SiHa): > 30000 nM | EC50 (C-33-A): 1830 nM
